Consider eight molecules from ChEMBL document CHEMBL5724914, “Linking interpersonal differences in gut microbiota composition and drug biotransformation activity” (2024).

Series [1] is described as follows: The drug is tested on Z-024 corresponding to pig gut metagenome with ENA study accession number: PRJEB37062 and ENA sample accession number: ERS12561823 for biotransformation under anaerobic condition. The drug concentrations were measured over 9 timepoints collected between 0 and 24 hours of incubation by liquid-chromatography-coupled mass spectrometry (LC–MS). The conditions noted are these: 2 µM.

A short description of series [2]: The drug is tested on Z-020 corresponding to rabbit gut metagenome with ENA study accession number: PRJEB37062 and ENA sample accession number: ERS12561819 for biotransformation under anaerobic condition. The drug concentrations were measured over 9 timepoints collected between 0 and 24 hours of incubation by liquid-chromatography-coupled mass spectrometry (LC–MS). To be noted: 2 µM.

Series [3] in a line: The drug is tested on Z-011 corresponding to mouse gut metagenome with ENA study accession number: PRJEB37062 and ENA sample accession number: ERS12561811 for biotransformation under anaerobic condition. The drug concentrations were measured over 9 timepoints collected between 0 and 24 hours of incubation by liquid-chromatography-coupled mass spectrometry (LC–MS). The conditions noted are these: 2 µM.

Series [4] can be described thus: The drug is tested on Z-001 corresponding to mouse gut metagenome with ENA study accession number: PRJEB37062 and ENA sample accession number: ERS12561801 for biotransformation under anaerobic condition. The drug concentrations were measured over 9 timepoints collected between 0 and 24 hours of incubation by liquid-chromatography-coupled mass spectrometry (LC–MS). To be noted: 2 µM.

Series [5] in a line: The drug is tested on WLS-240 corresponding to human gut metagenome with ENA study accession number: PRJEB37062 and ENA sample accession number: ERS12561773 for biotransformation under anaerobic condition. The drug concentrations were measured over 9 timepoints collected between 0 and 24 hours of incubation by liquid-chromatography-coupled mass spectrometry (LC–MS). The conditions noted are these: 2 µM.

Series [6] is described as follows: The drug is tested on WLS-170 corresponding to human gut metagenome with ENA study accession number: PRJEB37062 and ENA sample accession number: ERS12561762 for biotransformation under anaerobic condition. The drug concentrations were measured over 9 timepoints collected between 0 and 24 hours of incubation by liquid-chromatography-coupled mass spectrometry (LC–MS). To be noted: 2 µM.

The nature of series [7]: The drug is tested on WLS-039 corresponding to human gut metagenome with ENA study accession number: PRJEB37062 and ENA sample accession number: ERS12561746 for biotransformation under anaerobic condition. The drug concentrations were measured over 9 timepoints collected between 0 and 24 hours of incubation by liquid-chromatography-coupled mass spectrometry (LC–MS). The conditions noted are these: 2 µM.

Series [8] can be described thus: The drug is tested on WLS-007 corresponding to human gut metagenome with ENA study accession number: PRJEB37062 and ENA sample accession number: ERS12561742 for biotransformation under anaerobic condition. The drug concentrations were measured over 9 timepoints collected between 0 and 24 hours of incubation by liquid-chromatography-coupled mass spectrometry (LC–MS). The conditions noted are these: 2 µM.

The conditions of series [9]: human gut metagenome, 24 h, 2 µM.
The conditions of series [10]: human gut metagenome, 24 h, 2 µM. The source holds these as a separate data set.
The conditions of series [11]: human gut metagenome, 24 h, 2 µM. This is another data set of the same source.
The conditions of series [12]: human gut metagenome, 24 h, 2 µM. This is another data set of the same source.
For series [13] the following is noted: human gut metagenome, 24 h, 2 µM. The source holds these as a separate data set.
For series [14] the following is noted: human gut metagenome, 24 h, 2 µM. This is another data set of the same source.
The conditions of series [15]: human gut metagenome, 24 h, 2 µM. This is another data set of the same source.
The nature of series [16]: The drug is tested on Z-029 corresponding to rat gut metagenome with ENA study accession number: PRJEB37062 and ENA sample accession number: ERS12561828 for biotransformation under anaerobic condition. The drug concentrations were measured over 9 timepoints collected between 0 and 24 hours of incubation by liquid-chromatography-coupled mass spectrometry (LC–MS). To be noted: 2 µM.

A short description of series [17]: The drug is tested on Z-021 corresponding to metagenome with ENA study accession number: PRJEB37062 and ENA sample accession number: ERS12561820 for biotransformation under anaerobic condition. The drug concentrations were measured over 9 timepoints collected between 0 and 24 hours of incubation by liquid-chromatography-coupled mass spectrometry (LC–MS). The conditions noted are these: 2 µM.

A short description of series [18]: The drug is tested on Z-006 corresponding to mouse gut metagenome with ENA study accession number: PRJEB37062 and ENA sample accession number: ERS12561806 for biotransformation under anaerobic condition. The drug concentrations were measured over 9 timepoints collected between 0 and 24 hours of incubation by liquid-chromatography-coupled mass spectrometry (LC–MS). The conditions noted are these: 2 µM.

Series [19] can be described thus: The drug is tested on Z-004 corresponding to metagenome with ENA study accession number: PRJEB37062 and ENA sample accession number: ERS12561804 for biotransformation under anaerobic condition. The drug concentrations were measured over 9 timepoints collected between 0 and 24 hours of incubation by liquid-chromatography-coupled mass spectrometry (LC–MS). To be noted: 2 µM.

Series [20] in a line: The drug is tested on WLS-069 corresponding to human gut metagenome with ENA study accession number: PRJEB37062 and ENA sample accession number: ERS12561748 for biotransformation under anaerobic condition. The drug concentrations were measured over 9 timepoints collected between 0 and 24 hours of incubation by liquid-chromatography-coupled mass spectrometry (LC–MS). To be noted: 2 µM.
Note: call rule not given here.

As to `N[C@@H](Cc1ccc(N(CCCl)CCCl)cc1)C(=O)O`, the “Bacterial Biotransformation” value in series [1] is listed as “Compound metabolized”; in series [2], “Compound metabolized”; in [3], “Compound metabolized”; in series [4] it was “Compound metabolized”; in series [5], “Compound NOT metabolized”; in series [6], “Compound metabolized”. Further, the “Bacterial Biotransformation” value is given as “Compound metabolized” in series [7]; “Compound metabolized” in series [8]; “Compound NOT metabolized” in [9]; “Compound metabolized” in [10]; “Compound metabolized” in series [11]; “Compound metabolized” in [12]. Moreover, the “Bacterial Biotransformation” value in series [13], in series [14] and in series [15] was “Compound metabolized” each time.

Turning to `O=C1CCc2ccc(OCCCCN3CCN(c4cccc(Cl)c4Cl)CC3)cc2N1` [ARIPIPRAZOLE], the “Bacterial Biotransformation” value in series [16] is “Compound NOT metabolized”; in [1], “Compound metabolized”; in [17] it was “Compound metabolized”; in series [2], “Compound metabolized”; in series [3], “Compound NOT metabolized”; in series [18], “Compound metabolized”. Besides, the “Bacterial Biotransformation” value in series [19] and in [4] was “Compound NOT metabolized” each time.

For `CC(=O)Oc1ccc(C(c2ccc(OC(C)=O)cc2)c2ccccn2)cc1` [BISACODYL], the “Bacterial Biotransformation” value in series [19], in series [5], in series [6], in [20], in series [7] and in series [8] was “Compound metabolized” in each case. Also, the “Bacterial Biotransformation” value in [9], in series [10], in [11], in series [12], in [13] and in series [14] was “Compound metabolized” throughout. Moreover, the “Bacterial Biotransformation” value in series [15] is on record as “Compound metabolized”.

With `O=C1N=C([O-])NC1(c1ccccc1)c1ccccc1.[Na+]` [PHENYTOIN SODIUM], the “Bacterial Biotransformation” value in [1], in [2], in [3], in series [18], in series [19] and in series [4] was “Compound NOT metabolized” throughout. For the same molecule, the “Bacterial Biotransformation” value in [5] is on record as “Compound metabolized”; in series [6], “Compound metabolized”; in [20] it was “Compound metabolized”; in series [7] it was “Compound NOT metabolized”; in series [8], “Compound metabolized”; in series [9], “Compound metabolized”. Further, the “Bacterial Biotransformation” value in series [10] is listed as “Compound metabolized”; in [11], “Compound NOT metabolized”; in series [12] it was “Compound NOT metabolized”; in series [13], “Compound metabolized”; in series [14] it was “Compound metabolized”; in series [15], “Compound NOT metabolized”.

With `CNNCc1ccc(C(=O)NC(C)C)cc1` [PROCARBAZINE], the “Bacterial Biotransformation” value was “Compound NOT metabolized” in series [16]; “Compound metabolized” in series [1]; “Compound NOT metabolized” in series [19]; “Compound NOT metabolized” in series [4]; “Compound metabolized” in [5]; “Compound metabolized” in [6]. The “Bacterial Biotransformation” value is on record as “Compound metabolized” in [20]; “Compound NOT metabolized” in series [7]; “Compound NOT metabolized” in series [9]; “Compound NOT metabolized” in series [10]; “Compound NOT metabolized” in [11]; “Compound NOT metabolized” in series [12]. Further, the “Bacterial Biotransformation” value in series [14] is reported as “Compound metabolized”; in series [15], “Compound NOT metabolized”.

On to `CC(=O)SCC(Cc1ccccc1)C(=O)NCC(=O)OCc1ccccc1` (stereo not given) [RACECADOTRIL], for which the “Bacterial Biotransformation” value in [16], in [1], in series [17], in [2], in series [3] and in series [18] was “Compound metabolized” throughout. Further, the “Bacterial Biotransformation” value in series [19] and in series [4] was “Compound metabolized” in each case.

On to `CN(C/C=C/C#CC(C)(C)C)Cc1cccc2ccccc12` [TERBINAFINE], for which the “Bacterial Biotransformation” value in [16], in [1], in series [17], in series [2], in [3] and in series [18] was “Compound NOT metabolized” each time. Besides, the “Bacterial Biotransformation” value is “Compound NOT metabolized” in series [19]; “Compound NOT metabolized” in [4]; “Compound NOT metabolized” in series [5]; “Compound metabolized” in series [6]; “Compound metabolized” in [9]; “Compound NOT metabolized” in [10]. The “Bacterial Biotransformation” value in series [11], in series [12], in series [13] and in series [15] was “Compound NOT metabolized” throughout.

Turning to `N#Cc1ccc2[nH]cc(CCCCN3CCN(c4ccc5oc(C(N)=O)cc5c4)CC3)c2c1` [VILAZODONE], the “Bacterial Biotransformation” value is on record as “Compound NOT metabolized” in [16]; “Compound metabolized” in series [1]; “Compound metabolized” in [17]; “Compound metabolized” in series [3]; “Compound metabolized” in series [18]; “Compound NOT metabolized” in [19]. Further, the “Bacterial Biotransformation” value in [4], in series [5], in [6], in [7], in series [8] and in series [9] was “Compound metabolized” throughout. In addition, the “Bacterial Biotransformation” value was “Compound metabolized” in series [10]; “Compound metabolized” in series [11]; “Compound metabolized” in [12]; “Compound metabolized” in series [13]; “Compound metabolized” in series [14]; “Compound NOT metabolized” in series [15].
